Results published in US6737383B1, “Herbicidal oxadiazolidines” (priority 1999, dated 2004).

Assays:
rape = experiment: Test E rape; assay type: in vivo, Brassica napus; conditions: Postemergence
Procedure, shortened: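 Postemergence: 60:40 sandy loam/greenhouse potting mix, 1- to 4-leaf stage. Formulation: solvent plus surfactant. Assessment: visual comparison with untreated controls at ~21–28 days.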

lambsquarters = experiment: Test E lambsquarters; assay type: in vivo, Chenopodium album; conditions: Preemergence
surinam grass = experiment: Test D surinam grass; assay type: in vivo, Brachiaria decumbens; conditions: Preemergence, 0 to 100 scale
Procedure, shortened: (§1)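 Herbicide screen in the greenhouse. A non-phytotoxic solvent mixture with surfactant carried the test chemical; in pre-emergence tests it went onto the soil of pots seeded no more than a day earlier. Injury was scored by eye 14 to 21 days after application, 0 to 100.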

itchgrass [1] = experiment: Test D itchgrass; assay type: in vivo, Rottboellia exaltata; conditions: Preemergence, 0 to 100 scale
Procedure, shortened: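 Scoring used a 0–100 visual injury scale, with 0 meaning no effect and 100 complete control, assessed 14–21 days after application alongside untreated pots. Preemergence treatments went onto sandy loam surfaces of separately potted seeds within a day of sowing.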

goosegrass = experiment: Test D goosegrass; assay type: in vivo, Eleusine indica; conditions: Preemergence, 0 to 100 scale
Procedure, shortened: as §1

common ragweed = experiment: Test D common ragweed; assay type: in vivo, Ambrosia elatior; conditions: Preemergence, 0 to 100 scale
Source text: Seeds, tubers, or plant parts of Alexandergrass (Brachiaria plantaginea), bermuda-grass (Cynodon dactylon), common pursiane (Portulaca oleracea), common ragweed (Ambrosia elatior), common groundsel (Senecio vulgaris), dallisgrass (Paspalum dilatatum), goosegrass (Eleusine indica), guineagrass (Panicum maximum), itchgrass (Rottboellia exaltata), Johnson grass (Sorghum halepense), large crabgrass (Digitaria sanguinalis), pitted morningglory (Ipomoea lacunosa), purple nutsedge (Cyperus rotundus), sandbur (Cenchrus echinatus), sourgrass (Trichachne insularis), Spanishneedles (Bidens bipinnata), surinam grass (Brachiaria decumbens) and tall mallow (Malva sylvestris) were planted into greenhouse pots of flats containing greenhouse planting medium. Plant species were grown in separate pots or individual compartments. Preemergence applications were made within one day of planting the seed or plant part.
Test chemicals were formulated in a non-phytotoxic solvent mixture which included a surfactant and applied preemergence to the surface of the pot containing seeds in a sandy loam soil. Untreated control pots and treated pots were placed in the greenhouse for growth and visually evaluated for injury 14 to 21 days after herbicide application. Plant response ratings, summarized in Table C, are based on a 0 to 100 scale where 0 is no injury and 100 is complete control. A dash (−) response means no test result.

Spanishneedles [2] = experiment: Test D Spanishneedles; assay type: in vivo, Bidens bipinnata; conditions: Preemergence, 0 to 100 scale, 0 no injury, 100 complete control
Procedure, shortened: as §1

dallisgrass [3] = experiment: Test D dallisgrass; assay type: in vivo, Paspalum dilatatum; conditions: Preemergence, 0 to 100 scale
Procedure, shortened: as §1

Spanishneedles [4] = experiment: Test D Spanishneedles; assay type: in vivo, Bidens bipinnata
pitted morningglory = experiment: Test D pitted morningglory; assay type: in vivo, Ipomoea lacunosa; conditions: Postemergence, 0 to 100 scale
common groundsel = experiment: Test D common groundsel; assay type: in vivo, Senecio vulgaris; conditions: Postemergence, 0 to 100 scale
dallisgrass [5] = experiment: Test D dallisgrass; assay type: in vivo, Paspalum dilatatum; conditions: Postemergence, 0 to 100 scale
itchgrass [6] = experiment: Test D itchgrass; assay type: in vivo, Rottboellia exaltata; conditions: Postemergence, 0 to 100 scale
purple nutsedge = experiment: Test D purple nutsedge; assay type: in vivo, Cyperus rotundus; conditions: Postemergence, 0 to 100 scale
tall mallow = experiment: Test D tall mallow; assay type: in vivo, Malva sylvestris; conditions: Postemergence, 0 to 100 scale
Green foxtail = experiment: Test D green foxtail; assay type: in vivo; conditions: Postemergence, 0 to 100 scale, 0 no injury, 100 complete control
[7] = Rate 64 g/ha, 0 no injury, 100 complete control
[8] = Rate 16 g/ha; Postemergence; 0 to 100 scale, 0 no injury, 100 complete control
[9] = Rate 32 g/ha; Postemergence; 0 to 100 scale, 0 no injury, 100 complete control
[10] = Rate 64 g/ha, Postemergence; 0 to 100 scale, 0 no injury, 100 complete control
[11] = Rate 125 g/ha, Postemergence; 0 to 100 scale, 0 no injury, 100 complete control
[12] = Rate 250 g/ha; Postemergence; 0 to 100 scale
[13] = Rate 16 g/ha, 0 no injury, 100 complete control
[14] = Rate 32 g/ha, 0 no injury, 100 complete control
[15] = Rate 125 g/ha, 0 no injury, 100 complete control

## CCn1c(=O)on(C(=O)N(c2ccc(F)cc2F)C(C)C)c1=O [Compound 116]
rape; Rate 62 g/ha, 0 to 100 scale
  Plant response rating, Rape: 10
rape; Rate 125 g/ha, 0 to 100 scale
  Plant response rating, Rape: 0
rape; Rate 250 g/ha, 0 to 100 scale (0 no effect, 100 complete control)
  Plant response rating, Rape: 0
rape; Rate 500 g/ha, 0 to 100 scale, 0 no effect, 100 complete control
  Plant response rating, Rape: 30
lambsquarters; Rate 125 g/ha, 0 to 100 scale (0 no effect, 100 complete control)
  Plant response rating, Lambsquarters: 100
lambsquarters; Rate 250 g/ha, 0 to 100 scale
  Plant response rating, Lambsquarters: 100
lambsquarters; Rate 500 g/ha, 0 to 100 scale where 0 is no effect and 100 is complete control
  Plant response rating, Lambsquarters: 100

## C=C(C)Cn1c(=O)on(C(=O)N(c2ccc(F)cc2)C(C)C)c1=O [Compound 139]
Surinam grass; [7]
  Surinam grass plant response rating: 20
Itchgrass [1]; [7]
  Plant response rating, Itchgrass: 20
goosegrass; [7]
  Plant response rating, Goosegrass: 98
Common ragweed; [7]
  Plant response rating, C. ragweed: 0
Spanishneedles [2]; Rate 64 g/ha
  Spanishneedles plant response rating: 20
Dallisgrass [3]; [7]
  Plant response rating, Dallisgrass: 90

## COCC(C)n1c(=O)on(C(=O)N(c2ccc(F)cc2F)C(C)C)c1=O (stereo not drawn) [Compound 352]
Spanishneedles [4]; [8]
  Plant response rating, Spanishneedles: 0
Spanishneedles [4]; [9]
  Plant response rating, Spanishneedles: 0
Spanishneedles [4]; [10]
  Spanishneedles plant response rating: 0
Spanishneedles [4]; [11]
  Spanishneedles plant response rating: 40
Spanishneedles [4]; [12]
  Plant response rating, Spanishneedles: 30
Pitted morningglory; [13]
  Plant response rating, P. morninglory: 0
Pitted morningglory; [14]
  Plant response rating, P. morninglory: 0
Pitted morningglory; [7]
  Plant response rating, P. morninglory: 0
Pitted morningglory; [15]
  Plant response rating, P. morninglory: 0
Pitted morningglory; Rate 250 g/ha
  Plant response rating, P. morninglory: 0
Common groundsel; [14]
  Plant response rating, Com. groundsel: 0
Common groundsel; [7]
  Plant response rating, Com. groundsel: 50
Common groundsel; [15]
  Plant response rating, Com. groundsel: 100
Common groundsel; Rate 250 g/ha
  Plant response rating, Com. groundsel: 100
Dallisgrass [5]; [13]
  Plant response rating, Dallisgrass: 0
Dallisgrass [5]; [14]
  Plant response rating, Dallisgrass: 70
Dallisgrass [5]; [7]
  Plant response rating, Dallisgrass: 80
Dallisgrass [5]; [15]
  Plant response rating, Dallisgrass: 100
Dallisgrass [5]; Rate 250 g/ha
  Plant response rating, Dallisgrass: 100
Itchgrass [6]; [13]
  Plant response rating, Itchgrass: 0
Itchgrass [6]; [14]
  Plant response rating, Itchgrass: 0
Itchgrass [6]; [7]
  Plant response rating, Itchgrass: 0
Itchgrass [6]; [15]
  Plant response rating, Itchgrass: 20
Itchgrass [6]; Rate 250 g/ha
  Plant response rating, Itchgrass: 60
Purple nutsedge; [13]
  Plant response rating, Purple nutsedge: 0
Purple nutsedge; [14]
  Plant response rating, Purple nutsedge: 0
Purple nutsedge; [7]
  Purple nutsedge plant response rating: 0
Purple nutsedge; [15]
  Purple nutsedge plant response rating: 0
Purple nutsedge; Rate 250 g/ha
  Plant response rating, Purple nutsedge: 0
Tall mallow; [13]
  Plant response rating, Tall Mallow: 0
Tall mallow; [14]
  Plant response rating, Tall Mallow: 0
Tall mallow; [7]
  Tall Mallow plant response rating: 30
Tall mallow; [15]
  Tall Mallow plant response rating: 30
Tall mallow; Rate 250 g/ha
  Plant response rating, Tall Mallow: 20
Green foxtail; Rate 16 g/ha
  Plant response rating, Green foxtail: 0
Green foxtail; Rate 32 g/ha
  Plant response rating, Green foxtail: 100

## Cc1cccc(C)c1-n1c(=O)on(C(=O)N(c2ccc(F)cc2F)C(C)C)c1=O [Compound 28]
Surinam grass; [14]
  Plant response rating, Surinam grass: 0
Surinam grass; [7]
  Surinam grass plant response rating: 0
Surinam grass; [15]
  Surinam grass plant response rating: 65
Surinam grass; Rate 250 g/ha
  Plant response rating, Surinam grass: 75
Itchgrass [1]; [14]
  Plant response rating, Itchgrass: 0
Itchgrass [1]; [7]
  Plant response rating, Itchgrass: 20
Itchgrass [1]; [15]
  Plant response rating, Itchgrass: 40
Itchgrass [1]; Rate 250 g/ha
  Plant response rating, Itchgrass: 40
goosegrass; [14]
  Plant response rating, Goosegrass: 0
goosegrass; [7]
  Plant response rating, Goosegrass: 85
goosegrass; [15]
  Plant response rating, Goosegrass: 98
goosegrass; Rate 250 g/ha
  Plant response rating, Goosegrass: 100
Common ragweed; [14]
  Plant response rating, C. ragweed: 0
Common ragweed; [7]
  Plant response rating, C. ragweed: 0
Common ragweed; [15]
  Plant response rating, C. ragweed: 0
Common ragweed; Rate 250 g/ha
  Plant response rating, C. ragweed: 0
Spanishneedles [2]; Rate 32 g/ha
  Plant response rating, Spanishneedles: 0
Spanishneedles [2]; Rate 64 g/ha
  Spanishneedles plant response rating: 60
Spanishneedles [2]; Rate 125 g/ha
  Spanishneedles plant response rating: 75
Dallisgrass [3]; [14]
  Plant response rating, Dallisgrass: 30
Dallisgrass [3]; [7]
  Plant response rating, Dallisgrass: 75
Dallisgrass [3]; [15]
  Plant response rating, Dallisgrass: 85
Dallisgrass [3]; Rate 250 g/ha
  Plant response rating, Dallisgrass: 100

## CC(C)N(C(=O)n1oc(=O)n(C2CC2)c1=O)c1ccccc1 [Compound 243]
Spanishneedles [4]; Postemergence; Rate 32 g/ha; 0 to 100 scale, 0 no injury, 100 complete control
  Plant response rating, Spanishneedles: 50
Spanishneedles [4]; [8]
  Plant response rating, Spanishneedles: 0
Spanishneedles [4]; [9]
  Plant response rating, Spanishneedles: 0
Spanishneedles [4]; [10]
  Spanishneedles plant response rating: 50
Spanishneedles [4]; [11]
  Spanishneedles plant response rating: 20
Spanishneedles [4]; [12]
  Plant response rating, Spanishneedles: 100
Pitted morningglory; [13]
  Plant response rating, P. morninglory: 0
Pitted morningglory; [14]
  Plant response rating, P. morninglory: 0
Pitted morningglory; [7]
  Plant response rating, P. morninglory: 0
Pitted morningglory; [15]
  Plant response rating, P. morninglory: 0
Pitted morningglory; Rate 250 g/ha
  Plant response rating, P. morninglory: 40
Common groundsel; [13]
  Plant response rating, Com. groundsel: 0
Common groundsel; [14]
  Plant response rating, Com. groundsel: 0
Common groundsel; [7]
  Plant response rating, Com. groundsel: 0
Common groundsel; [15]
  Plant response rating, Com. groundsel: 100
Common groundsel; Rate 250 g/ha
  Plant response rating, Com. groundsel: 100
Dallisgrass [5]; [13]
  Plant response rating, Dallisgrass: 0
Dallisgrass [5]; [14]
  Plant response rating, Dallisgrass: 50
Dallisgrass [5]; [7]
  Plant response rating, Dallisgrass: 70
Dallisgrass [5]; [15]
  Plant response rating, Dallisgrass: 100
Dallisgrass [5]; Rate 250 g/ha
  Plant response rating, Dallisgrass: 100
Itchgrass [6]; [13]
  Plant response rating, Itchgrass: 0
Itchgrass [6]; [14]
  Plant response rating, Itchgrass: 0
Itchgrass [6]; [7]
  Plant response rating, Itchgrass: 0
Itchgrass [6]; [15]
  Plant response rating, Itchgrass: 10
Itchgrass [6]; Rate 250 g/ha
  Plant response rating, Itchgrass: 100
Purple nutsedge; [13]
  Plant response rating, Purple nutsedge: 0
Purple nutsedge; [14]
  Plant response rating, Purple nutsedge: 0
Purple nutsedge; [7]
  Purple nutsedge plant response rating: 0
Purple nutsedge; [15]
  Purple nutsedge plant response rating: 10
Purple nutsedge; Rate 250 g/ha
  Plant response rating, Purple nutsedge: 100
Tall mallow; [13]
  Plant response rating, Tall Mallow: 50
Tall mallow; [14]
  Plant response rating, Tall Mallow: 20
Tall mallow; [7]
  Tall Mallow plant response rating: 30
Tall mallow; [15]
  Tall Mallow plant response rating: 40
Tall mallow; Rate 250 g/ha
  Plant response rating, Tall Mallow: 60
Green foxtail; Rate 16 g/ha
  Plant response rating, Green foxtail: 10
Green foxtail; Rate 32 g/ha
  Plant response rating, Green foxtail: 100

## CC(C)N(C(=O)n1oc(=O)n(C2(C)CC2)c1=O)c1ccccc1 [Compound 360]
Spanishneedles [4]; [8]
  Plant response rating, Spanishneedles: 0
Spanishneedles [4]; [10]
  Spanishneedles plant response rating: 0
Spanishneedles [4]; [11]
  Spanishneedles plant response rating: 0
Spanishneedles [4]; [12]
  Plant response rating, Spanishneedles: 20
Pitted morningglory; [13]
  Plant response rating, P. morninglory: 0
Pitted morningglory; [14]
  Plant response rating, P. morninglory: 0
Pitted morningglory; [7]
  Plant response rating, P. morninglory: 0
Pitted morningglory; [15]
  Plant response rating, P. morninglory: 0
Pitted morningglory; Rate 250 g/ha
  Plant response rating, P. morninglory: 10
Common groundsel; [7]
  Plant response rating, Com. groundsel: 0
Common groundsel; [15]
  Plant response rating, Com. groundsel: 100
Common groundsel; Rate 250 g/ha
  Plant response rating, Com. groundsel: 100
Dallisgrass [5]; [13]
  Plant response rating, Dallisgrass: 0
Dallisgrass [5]; [14]
  Plant response rating, Dallisgrass: 40
Dallisgrass [5]; [7]
  Plant response rating, Dallisgrass: 100
Dallisgrass [5]; [15]
  Plant response rating, Dallisgrass: 100
Dallisgrass [5]; Rate 250 g/ha
  Plant response rating, Dallisgrass: 100
Itchgrass [6]; [13]
  Plant response rating, Itchgrass: 0
Itchgrass [6]; [14]
  Plant response rating, Itchgrass: 0
Itchgrass [6]; [7]
  Plant response rating, Itchgrass: 0
Itchgrass [6]; [15]
  Plant response rating, Itchgrass: 20
Itchgrass [6]; Rate 250 g/ha
  Plant response rating, Itchgrass: 30
Purple nutsedge; [13]
  Plant response rating, Purple nutsedge: 0
Purple nutsedge; [14]
  Plant response rating, Purple nutsedge: 0
Purple nutsedge; [7]
  Purple nutsedge plant response rating: 0
Purple nutsedge; [15]
  Purple nutsedge plant response rating: 10
Purple nutsedge; Rate 250 g/ha
  Plant response rating, Purple nutsedge: 20
Tall mallow; [13]
  Plant response rating, Tall Mallow: 0
Tall mallow; [14]
  Plant response rating, Tall Mallow: 0
Tall mallow; [7]
  Tall Mallow plant response rating: 40
Tall mallow; [15]
  Tall Mallow plant response rating: 60
Tall mallow; Rate 250 g/ha
  Plant response rating, Tall Mallow: 90
Green foxtail; Rate 16 g/ha
  Plant response rating, Green foxtail: 0
Green foxtail; Rate 32 g/ha
  Plant response rating, Green foxtail: 70
